Results reported in patent US20060079453A1, “Hla binding peptides and their uses” (priority 2002, published 2006).
Where two headings read alike, the source gives them in different places. No end group written: not given here.

Key:
Test in all cases: biochemical
Assay type in all cases: binding
[1] = biological target: HLA-DR DRB1*0401 (DR4) (Homo sapiens, UniProt P01903+P01911, A100K/A169T/F76Y/I96L/K127E/L162R/M171V/N62H/P40V/Q125Y/R42H/S133A/S149N/S66Y/V115G/V209L/W38E)
[2] = biological target: HLA-DR DRB1*0701 (DR7) (Homo sapiens, UniProt P01903+P01911, A100R/A102G/A103Q/D57E/D86V/E43K/F76Y/K127E/L162R/M171V/P40G/Q125H/Q99D/R33Q/R42Y/R54Q/S133A/S66F/T210M/V115G/Y107V/Y59L/Y89S)
[3] = biological target: HLA-DR DRB1*1302 (DR13) (Homo sapiens, UniProt P01903+P01911, A100E/A169T/K41T/L162R/M171V/P40S/Q125H/Q178H/Q39Y/Q99D/R42S/S66N/T262R/V115G/W38E/Y61H)
Sequence of HLA-DR DRB1*1302 (DR13) (P01903 26-254 limits assumed, other chains not shown): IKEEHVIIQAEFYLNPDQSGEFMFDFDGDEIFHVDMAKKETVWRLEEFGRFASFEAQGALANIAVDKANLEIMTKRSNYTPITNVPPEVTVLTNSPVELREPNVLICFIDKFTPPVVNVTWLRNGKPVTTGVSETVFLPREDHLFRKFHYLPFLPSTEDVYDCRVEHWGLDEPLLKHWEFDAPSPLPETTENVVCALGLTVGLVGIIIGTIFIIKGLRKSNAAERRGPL

[4] = biological target: HLA-DR DRB4*0101 (DR53) (Homo sapiens, UniProt P01903+P13762, G164S)
[5] = biological target: HLA-DR DRB1*1501 (DR15) (Homo sapiens, UniProt P01903+P01911)
[6] = biological target: HLA-DR DRB1*1101 (DR11) (Homo sapiens, UniProt P01903+P01911, A100R/A169T/A87E/I96F/K41T/L162R/M171V/P40S/Q125H/Q178H/Q39Y/Q99D/R42S/S66Y/T262R/V115G/W38E); conditions: DRB1 *1101
Sequence of HLA-DR DRB1*1101 (DR11) (P01903 26-254 limits assumed, other chains not shown): as above

[7] = biological target: HLA-DR DRB1*0802 (DR8) (Homo sapiens, UniProt P01903+P01911, A100R/A103L/A169T/F76Y/H45Y/I96F/K41T/L162R/M171V/P40S/Q125H/Q178H/Q39Y/Q99D/R218S/R42G/S66Y/V115G/W38E)
[8] = biological target: HLA-DR DRB1*0901 (DR9) (Homo sapiens, UniProt P01903+P01911, A100R/A103E/D57H/D86V/F55Y/F60I/F76Y/I96F/K127E/L162R/M171V/P40D/Q125H/Q99R/R33Q/R42F/S133A/S66N/T210M/V115G/W38K/Y107V/Y59G/Y89S)
[9] = biological target: HLA-DR DRB5*0101 (DR51) (Homo sapiens, UniProt P01903+Q30154); conditions: DRB5 *0101
[10] = biological target: HLA-DR DRB1*0101 (DR1) (Homo sapiens, UniProt P01903+P01911, A100R/D57E/F55L/F60I/F76Y/I96L/L162R/M171V/P40L/Q125E/R42F/V115G/Y59C)
[11] = biological target: HLA-DR DRB1*0301 (DR3) (Homo sapiens, UniProt P01903+P01911, A100K/A102G/A103R/A169T/F55Y/I96L/K41T/L162R/M171V/P40S/Q125H/Q178H/Q39Y/R42S/S66N/T106N/T262R/W38E/Y61H)
Sequence of HLA-DR DRB1*0301 (DR3) (P01903 26-254 limits assumed, other chains not shown): as above

| Compound | IC50 ([1]; DRB1 *0401) [nM] | IC50 ([2]; DRB1 *0701) [µM] | IC50 ([3]; DRBI *1302) [nM] | IC50 ([4]; DRB4 *0101) [nM] | IC50 ([5]; DRBI *1501) [nM] | IC50 [7] [µM] | IC50 ([8]; DRB1 *0901) [µM] | IC50 [9] [µM] | IC50 ([10]; DRB1 *0101) [nM] | also measured |
| --- | --- | --- | --- | --- | --- | --- | --- | --- | --- | --- |
| CSCC[C@H](NC(=O)[C@H](CCC(N)=O)NC(=O)[C@H](CC(C)C)NC(=O)CNC(=O)[C@H](CO)NC(=O)[C@@H](NC(=O)[C@@H](NC(=O)[C@@H](NC(=O)[C@@H](N)CC(=O)O)[C@@H](C)O)[C@@H](C)O)C(C)C)C(=O)N[C@@H](C)C(=O)N[C@@H](CC(C)C)C(=O)N[C@@H](CC(=O)O)C(=O)N[C@H](C(=O)N[C@@H](Cc1ccc(O)cc1)C(=O)N[C@@H](CC(N)=O)C(=O)O)C(C)C | 4420 | 14.7 | 3500 | 961 | 1040 | > 245 | 2.88 | > 200 | – | IC50 [6]: > 50 µM |
| CC[C@H](C)[C@H](NC(=O)CNC(=O)[C@H](CCC(N)=O)NC(=O)[C@H](CC(C)C)NC(=O)[C@@H](NC(=O)CNC(=O)[C@H](CC(N)=O)NC(=O)[C@H](CS)NC(=O)[C@@H](NC(=O)[C@H](CC(C)C)NC(=O)[C@@H]1CCCN1C(=O)CN)C(C)C)C(C)C)C(=O)N[C@H](C(=O)N[C@@H](CO)C(=O)N[C@@H](Cc1c[nH]c2ccccc12)C(=O)O)[C@@H](C)O | 30 | 4.89 | 49 | 646 | 6310 | 4.19 | 32.6 | 6.54 | 1720 | IC50 [6]: 0.915 µM |
| CC[C@H](C)[C@H](NC(=O)[C@H](CCCCN)NC(=O)[C@H](C)NC(=O)[C@@H]1CCCN1C(=O)[C@H](CCC(=O)O)NC(=O)[C@H](CO)NC(=O)[C@H](CC(C)C)NC(=O)[C@H](CCCNC(=N)N)NC(=O)[C@H](CC(C)C)NC(=O)[C@H](CC(C)C)NC(=O)[C@H](CCSC)NC(=O)[C@H](CC(C)C)NC(=O)[C@H](CC(=O)O)NC(=O)[C@@H](N)Cc1c[nH]cn1)C(=O)N[C@H](C(=O)O)[C@@H](C)O | 3060 | 0.109 | 0.83 | 12 | – | 0.544 | 0.043 | – | 16 | – |
| CC[C@H](C)[C@H](N)C(=O)N[C@@H](CO)C(=O)N[C@H](C(=O)N[C@H](C(=O)N[C@@H](CC(N)=O)C(=O)N[C@@H](CCC(=O)O)C(=O)N[C@@H](CC(=O)O)C(=O)NCC(=O)N[C@@H](CC(N)=O)C(=O)N[C@@H](CCC(=O)O)C(=O)N[C@H](C(=O)N[C@@H](Cc1ccccc1)C(=O)N[C@@H](CC(N)=O)C(=O)N[C@H](C(=O)N[C@@H](CO)C(=O)O)[C@@H](C)O)[C@@H](C)CC)[C@@H](C)CC)[C@@H](C)CC | > 13000 | > 23.1 | – | – | – | > 123 | > 52.3 | – | – | IC50 [11]: 559 nM |
| CC[C@H](C)[C@H](NC(=O)[C@H](CO)NC(=O)[C@H](CC(C)C)NC(=O)[C@@H](NC(=O)[C@H](CC(C)C)NC(=O)[C@H](CC(=O)O)NC(=O)[C@H](Cc1c[nH]c2ccccc12)NC(=O)[C@@H](N)CCSC)C(C)C)C(=O)N[C@@H](C)C(=O)N[C@@H](CC(C)C)C(=O)N[C@@H](CO)C(=O)N[C@H](C(=O)NCC(=O)N[C@@H](CS)C(=O)N[C@H](C(=O)O)[C@@H](C)O)C(C)C | 1850 | 3.03 | 108 | 158 | 11400 | 23 | 1.73 | 70.7 | 205 | IC50 [6]: 81.1 µM |
| CC[C@H](C)[C@H](NC(=O)[C@H](Cc1ccc(O)cc1)NC(=O)[C@@H]1CCCN1)C(=O)N[C@@H](CC(C)C)C(=O)N[C@@H](CC(C)C)C(=O)N[C@H](C(=O)N[C@@H](CO)C(=O)N[C@@H](CO)C(=O)N[C@@H](CCCCN)C(=O)N[C@H](C(=O)N[C@@H](CO)C(=O)N[C@H](C(=O)N[C@H](C(=O)N[C@@H](CCCCN)C(=O)N[C@@H](CC(=O)O)C(=O)O)C(C)C)[C@@H](C)O)C(C)C)C(C)C | – | – | – | – | – | 0.012 | – | 0.032 | – | IC50 [1]: 64 nM; IC50 [2]: 0.038 µM; IC50 [3]: 7.2 nM; IC50 [4]: 107 nM; IC50 [5]: 22 nM; IC50 [10]: 1.1 nM |
| DSSIEGNYTLRVDCT | – | – | – | – | – | – | – | – | – | IC50 ([2]; read-out: DRB1 *0701): 14.5 µM; IC50 ([7]; read-out: DRB1 *0802): > 163 µM; IC50 ([8]; read-out: DRB1 *0901): > 187 µM |
| FENLVAENVKPPKVD | 2370 | 120 | 3030 | 9300 | > 50800 | > 25 | – | 62.7 | 56 | – |
| FIHFFTWGTMFVPKY | 273 | 0.489 | 328 | – | 2380 | 1.7 | – | 9.61 | – | – |
| IGYYDAQKLLEKMGG | 12600 | > 83.3 | 5730 | 13600 | 1980 | 8.24 | 47.2 | – | – | IC50 [6]: > 28.6 µM |
| KCEFQDAYVILLSEKK | 73 | 0.336 | > 10300 | > 19600 | > 47600 | 0.489 | – | 0.02 | 14 | IC50 [11]: 5790 nM |
| KPAVYTKVVHYRICWI | – | – | – | – | – | – | – | – | – | IC50 ([2]; read-out: DRB1 *0701): 2.4 µM; IC50 ([7]; read-out: DRB1 *0802): 0.053 µM; IC50 ([8]; read-out: DRB1 *0901): 3.68 µM; IC50 ([10]; read-out: DRB1 *0101): 5000 nM |
| LDIYQKLYIKQEEQK | 1490 | > 88.3 | 4350 | 70 | 47 | 1.2 | – | 6.96 | 2830 | – |
| MSAMTNLAALFPPEG | – | – | – | – | – | – | – | – | – | IC50 ([1]; read-out: DRB1 *0401): 700 nM; IC50 ([2]; read-out: DRB1 *0701): 36.1 µM; IC50 ([7]; read-out: DRB1 *0802): 73.9 µM; IC50 ([8]; read-out: DRB1 *0901): > 187 µM |
| MTNLAALFPPEGVS | – | – | – | – | – | – | – | – | – | IC50 ([1]; read-out: DRB1 *0401): > 40000 nM; IC50 ([2]; read-out: DRB1 *0701): > 125 µM; IC50 ([7]; read-out: DRB1 *0802): 39.2 µM; IC50 ([8]; read-out: DRB1 *0901): 22.8 µM; IC50 ([10]; read-out: DRB1 *0101): 24 nM |
| PRSLQCVSLHLLSND | 16000 | 2.22 | 3730 | 544 | 1600 | 6.11 | 28.3 | 46.4 | 1110 | IC50 [6]: 11.1 µM |
| PRWLCAGALVLAGGF | > 20000 | 0.766 | 20200 | 883 | – | 26.5 | 1.44 | 40.8 | 46 | IC50 [6]: > 40 µM |
| QKILIKIPVTKNIIT | 303 | 0.534 | 332 | 953 | 3610 | 2.24 | – | 0.297 | 993 | – |
| SFLQNPQTSLCCFRK | – | – | – | – | – | – | – | – | – | IC50 ([1]; read-out: DRB1 *0401): 671 nM; IC50 ([11]; read-out: DRB1 *0301): 1830 nM; IC50 ([2]; read-out: DRB1 *0701): 7.03 µM; IC50 ([7]; read-out: DRB1 *0802): 7.07 µM |
| TAWTIVRVEILRYFY | – | – | – | – | – | – | – | – | – | IC50 ([1]; read-out: DRB1 *0401): 44 nM; IC50 ([11]; read-out: DRB1 *0301): 3000 nM; IC50 ([2]; read-out: DRB1 *0701): 0.029 µM; IC50 ([7]; read-out: DRB1 *0802): 57.2 µM; IC50 ([10]; read-out: DRB1 *0101): 7.8 nM |
| VAQVRGGMVFELANS | – | – | – | – | – | – | – | – | – | IC50 ([1]; read-out: DRB1 *0401): 662 nM; IC50 ([2]; read-out: DRB1 *0701): 4.45 µM; IC50 ([7]; read-out: DRB1 *0802): > 98 µM; IC50 ([8]; read-out: DRB1 *0901): 0.499 µM |
| VEALYLVCGERGFLY | – | 5.35 | 1870 | 19 | – | 10.6 | 3.06 | 5.15 | 14 | IC50 [6]: 55.4 µM |
| VLFLQMMNVNLQKQL | 30 | 8.44 | 8.6 | 12 | 8200 | 56.8 | – | > 7.21 | 6.3 | – |
| YEALIKLLPFSKRIR | 1840 | 3.58 | 230 | 15 | 36 | 0.18 | – | 0.011 | 55 | – |
| YILLKKILSSRFNQM | 183 | 0.0083 | – | 340 | 26 | 0.018 | – | 0.083 | 220 | – |
